According to PubChem BioAssay (NCI):
“And” between values parts separate entries of the source, which are not always exact repeats. Equal entries are not always repeated.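 Tested at 5 concentrations; 48 h exposure; 96-well plates; endpoints linearly interpolated, else capped at highest concentration. TGI: total growth inhibition.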

Experiments:
Assay in all cases: inhibition of tumour cell growth, NCI panel, 48 h
DLD-1 colon = system: DLD-1 colon
DMS 273 small cell lung = system: DMS 273 small cell lung
SNB-78 CNS = system: SNB-78 CNS

| Structure (SMILES) | TGI (DLD-1 colon) | TGI (DMS 273 small cell lung) | TGI (SNB-78 CNS) |
| --- | --- | --- | --- |
| COc1ccccc1NC(=O)C1=C(C)NC(C)=C(C(=O)Nc2ccccc2OC)C1c1ccccc1[N+](=O)[O-] | 36.5 µM | 34.9 µM | > 100 µM |
| COc1ccc2[nH]c3c(c2c1)[C@H](c1ccccc1)C[C@@H]1C(=O)N(c2ccccc2)C(=O)[C@H]31 | > 100 µM | > 100 µM | > 100 µM |
| Cc1ccc(C(=O)CC2(O)C(=O)Nc3c(C)cc(Cl)cc32)cc1 (stereo not drawn) | > 100 µM | > 100 µM | > 100 µM |
| CC1=CC2C(C=C1)S(=O)(=O)N1CC21c1ccccc1 (stereo not drawn) | > 100 µM | > 100 µM | > 100 µM |
| N#CC(NNC(=O)Cc1ccccc1)c1cccc(O)c1 (stereo not drawn) | > 100 µM | > 100 µM | > 100 µM |
| CCOC(=O)c1c2ccc(/C=C/c3ccccn3)ccc-2c(C(=O)OCC)c1N | > 100 µM | > 100 µM | – |
| O=Cc1c[nH]c2c(=O)[nH]cnc12 | > 100 µM | – | > 100 µM |
| Cc1cc2ncn(-c3nc4ccccc4nc3C(C#N)S(C)(=O)=O)c2cc1C (stereo not drawn) | > 100 µM | > 100 µM | > 100 µM |
| Nc1nc2c(N)cc(C(F)(F)F)cc2nc1-c1ccccc1 | > 100 µM | > 100 µM | > 100 µM |
| O=C(Cc1ccccc1)NN1C(=O)C(Cl)C1c1ccccc1Cl (stereo not drawn) | > 100 µM | > 100 µM | > 100 µM |
| CC(C)N(C(=O)C12C3C4C1C1C2C3C41C#N)C(C)C (stereo not drawn) | > 100 µM | > 100 µM | > 100 µM |
| CCOc1ccccc1N=Nc1ccc2oc(=O)c(C(C)=O)cc2c1 | > 100 µM | > 100 µM | > 100 µM |
| COc1cc2c(c(OC)c1OC)-c1ccc(SC)c(=O)cc1[C@@H](NCc1ccc(F)cc1)CC2 | 75 µM and > 100 µM | – | 65.6 µM and > 100 µM |
| COCC(C)(C)N=CN1Cc2cc3ccccc3nc2C1 | > 100 µM | – | – |
| CCCCCCCC/C=C1\CCC(CN(C)C)C1=O (stereo not drawn) | 4.9 µM | 5.12 µM | 27.2 µM |
| COC(=O)C(=O)C(C(=O)OC)C(=O)C(=O)Nc1c(C)cccc1C (stereo not drawn) | > 100 µM | – | > 100 µM |
| CC(=O)Nc1[nH]n(C)c(=O)c1-c1nnc(C)s1 | > 100 µM | > 100 µM | > 100 µM |
| Cc1ccc(NC(=O)CCCC(=O)CC(=O)c2ccc(Br)cc2)cc1 | > 100 µM | > 100 µM | > 100 µM |
| CC1=C(c2nc3ccccc3s2)C(=O)OC1(C)C | > 100 µM | > 100 µM | > 100 µM |
| CC(C)c1cccc(C(C)C)c1NC(=O)C(=O)Cc1nc2ccc([N+](=O)[O-])cc2[nH]c1=O | > 100 µM | > 100 µM | – |
| Cc1c(O)c(=O)ccn1CCN | > 100 µM | > 100 µM | > 100 µM |
| N#CCCn1[nH]c(=O)c(Cl)c(Cl)c1=O | 27 µM | – | 41.9 µM |
